The subject of this experiment is HeLa viability, CellTiter-Glo ATP luminescence, 8-48 h. Briefly: HeLa cell viability over time, late-stage follow-up, mechanism study for HRAS target identification, CellTiter-Glo ATP luminescence, 8-48 h, dry powder (AID 720609). (Cellular ATP, detected with luciferase, serves as a proxy for viable cell number.)

As to `COc1ccc(N(C(=O)CCl)C(C(=O)NCCc2ccccc2)c2cccs2)cc1Cl` (stereo not drawn), the AC50 amounted to 725 nM (measured here: AC50 at 8 h), 323 nM (measured here: AC50 at 24 h) and 699 nM (measured here: AC50 at 48 h).

`C#CCCCC(=O)NCCOCCOCCOc1ccc(N(C(=O)CCl)C(C(=O)NCCc2ccccc2)c2cccs2)cc1Cl` (stereo not drawn): the AC50 runs as follows: (measured here: AC50 at 8 h) 6100 nM; (measured here: AC50 at 24 h) 3100 nM; (measured here: AC50 at 48 h) 4790 nM.

Regarding `CC(C)(C)OC(=O)NCCOCCOCCOc1ccc(N(C(=O)CCl)C(C(=O)NCCc2ccccc2)c2cccs2)cc1Cl` (stereo not drawn), the AC50 is, setting by setting: (measured here: AC50 at 8 h) 515 nM; (measured here: AC50 at 24 h) 564 nM; (measured here: AC50 at 48 h) 946 nM.

With `CCC(=O)N(c1ccc(OC)c(Cl)c1)C(C(=O)NCCc1ccccc1)c1cccs1` (stereo not drawn), the AC50 (measured here: AC50 at 24 h) was > 70000 nM.

Regarding `COC(=O)c1ccc([C@@H]2c3[nH]c4ccccc4c3C[C@@H](C(=O)OC)N2C(=O)CCl)cc1`, the AC50 runs as follows: (measured here: AC50 at 8 h) 512 nM; (measured here: AC50 at 24 h) 609 nM; (measured here: AC50 at 48 h) 602 nM.

One may read the AC50 as the concentration giving half of the maximal activity seen. A high value points to weaker potency.

Values taken from PubChem BioAssay AID720609 (Broad Institute, 2013).
